In paper PMC9007462 (Journal of Medicinal Chemistry, 2022):

Legend:
[1] = tested on: patient-derived primary prostate tumor epithelial cells; conditions: other primary samples analyzed in the authors' laboratory; cited from earlier work
LNCaP = assay: MTT chemosensitivity assay, LNCaP; type: cell-based, human; conditions: Homo sapiens, LNCaP, 96 h exposure, ± SD, at least three independent experiments
Description: (§1) MTT (3-(4, 5-dimethyl-2-thiazolyl)-2, 5-diphenyl-2H-tetrazolium bromide) assay was used to determine cell viability.[64] Immortalized PCa cells (PC-3, Du-145, and LNCaP) were seeded in 96-well plates and allowed to adhere overnight at 37 °C, 5% CO2, and 100% humidity. […] After 96 h of exposure, 200 μL of MTT (Sigma) solution (0.5 mg/mL) was added to each well and incubated at 37 °C for 4 h. The formazan crystals were dissolved in DMSO (Sigma), and the absorbance was read using a microplate reader (Multiskan EX; Thermo Fisher Scientific) at 540 nm. Data analysis was performed using Microsoft Excel 2013 and GraphPad Prism software.

Human ALDH1A3 [2] = target: T1, Human ALDH1A3 (Homo sapiens, UniProt P47895); assay: ALDH1A3 inhibition, IC50, Ki and type of inhibition; type: biochemical; conditions: 6 μM hexanal as substrate; mean ± SE
T1 construct: made in house
T1 sequence (P47895 1-512): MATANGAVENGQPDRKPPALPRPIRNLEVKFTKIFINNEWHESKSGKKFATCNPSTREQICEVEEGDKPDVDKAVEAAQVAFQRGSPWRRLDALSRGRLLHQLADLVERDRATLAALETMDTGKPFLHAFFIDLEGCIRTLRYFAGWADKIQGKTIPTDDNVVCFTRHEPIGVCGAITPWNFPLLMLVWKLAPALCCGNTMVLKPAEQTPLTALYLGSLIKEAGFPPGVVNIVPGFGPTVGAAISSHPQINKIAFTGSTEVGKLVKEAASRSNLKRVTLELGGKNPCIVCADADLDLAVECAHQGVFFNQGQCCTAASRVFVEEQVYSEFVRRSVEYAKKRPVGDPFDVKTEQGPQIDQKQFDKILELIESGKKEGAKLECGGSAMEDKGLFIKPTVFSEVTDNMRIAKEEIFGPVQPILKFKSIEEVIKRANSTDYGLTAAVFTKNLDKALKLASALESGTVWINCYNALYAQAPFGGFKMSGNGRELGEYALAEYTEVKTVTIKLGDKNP
Description: Human ALDH1A1, ALDH1A3, and ALDH3A1 were cloned and recombinantly expressed from the pET-30 Xa/LIC vector. Protein purification was achieved by affinity chromatography on a nickel-charged chelating Sepharose Fast Flow 5-mL column (His Trap column, Cytiva), which specifically binds the protein due to its N-terminal (His)6 tag, using an ÄKTA FPLC system (Cytiva), as previously described.[55] Enzymes including the His tag were stored at −80 °C in 20 mM Tris/HCl and 0.5 M NaCl, pH 8.0, until use. Reaction buffers were as follows: ALDH1A1 was assayed in 50 mM HEPES, 0.5 mM EDTA, and 0.5 mM DTT, pH 8.0; […] Activity under standard conditions was measured fluorimetrically at 25 °C using a Cary Eclipse (Varian) fluorimeter to follow the purification procedure and to check the enzyme concentration before each kinetic experiment. […] In order to determine the IC50 values, reaction rates were determined at various concentrations of inhibitor at a fixed concentration of substrate. […] Values are expressed as the mean ± SE. […] The data of enzymatic activities at different inhibitor concentrations were fitted to the Michaelis–Menten equation to determine the values of Km and Vmax. Next, results were fitted to the equations for competitive, given by [drawing 3]; noncompetitive, given by [drawing 4]; uncompetitive, given by [drawing 5]; and mixed, given by [drawing 6] .[56] The type of inhibition was selected based on the lowest error value. Parameters were expressed as the mean ± SE.

PC3 = assay: MTT chemosensitivity assay, PC3; type: cell-based, human; conditions: Homo sapiens, PC-3, 96 h exposure, ± SD, at least three independent experiments
Description: as §1

[3] = tested on: PC3, DU145 and LNCaP prostate cancer cell lines; assay: MTT chemosensitivity assay, panel of three prostate cancer cell lines; type: cell-based; conditions: Homo sapiens, 96 h exposure, read-out: IC50 against three prostate cancer cell lines
Description: as §1

DU145 = assay: MTT chemosensitivity assay, DU145; type: cell-based, human; conditions: Homo sapiens, DU-145, 96 h exposure, ± SD, at least three independent experiments
Description: as §1

Human ALDH3A1 [4] = target: T2, Human ALDH3A1 (Homo sapiens, UniProt P30838); assay: ALDH3A1 inhibition, IC50, Ki and type of inhibition; type: biochemical; conditions: 31 μM 4-NBA as substrate; mean ± SE
T2 construct: made in house
T2 sequence (P30838 1-453): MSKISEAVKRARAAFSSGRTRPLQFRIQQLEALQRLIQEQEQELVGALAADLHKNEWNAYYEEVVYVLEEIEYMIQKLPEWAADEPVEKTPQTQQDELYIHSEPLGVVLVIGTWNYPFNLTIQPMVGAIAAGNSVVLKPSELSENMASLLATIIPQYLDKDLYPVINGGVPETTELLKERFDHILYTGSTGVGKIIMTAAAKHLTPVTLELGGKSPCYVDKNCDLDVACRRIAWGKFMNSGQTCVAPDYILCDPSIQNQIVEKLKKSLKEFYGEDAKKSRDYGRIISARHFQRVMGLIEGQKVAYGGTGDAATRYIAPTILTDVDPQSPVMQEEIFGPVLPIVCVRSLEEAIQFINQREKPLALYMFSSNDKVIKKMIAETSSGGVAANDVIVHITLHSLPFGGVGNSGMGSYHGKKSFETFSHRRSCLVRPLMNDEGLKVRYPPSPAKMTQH
Description: (§2) Human ALDH1A1, ALDH1A3, and ALDH3A1 were cloned and recombinantly expressed from the pET-30 Xa/LIC vector. Protein purification was achieved by affinity chromatography on a nickel-charged chelating Sepharose Fast Flow 5-mL column (His Trap column, Cytiva), which specifically binds the protein due to its N-terminal (His)6 tag, using an ÄKTA FPLC system (Cytiva), as previously described.[55] Enzymes including the His tag were stored at −80 °C in 20 mM Tris/HCl and 0.5 M NaCl, pH 8.0, until use. Reaction buffers were as follows: ALDH1A1 was assayed in 50 mM HEPES, 0.5 mM EDTA, and 0.5 mM DTT, pH 8.0; ALDH1A3 was assayed in 50 mM HEPES, 30 mM MgCl2, and 5 mM DTT, pH 8.0; and ALDH3A1 was assayed in 50 mM Tris–HCl and 5 mM DTT, pH 8.0. Activity under standard conditions was measured fluorimetrically at 25 °C using a Cary Eclipse (Varian) fluorimeter to follow the purification procedure and to check the enzyme concentration before each kinetic experiment. The fluorescence of NADH was characterized at 460 nm with excitation at 340 nm, and 5 μM NAD(P)H was added as an internal standard to obtain the absolute reaction rates.[55] Standard activity was measured at saturating concentrations of substrate using 30 μM hexanal (ALDH1A1), 250 μM hexanal (ALDH1A3), or 250 μM 4-NBA (ALDH3A1). NAD^+ was 500 μM for ALDH1A1 and ALDH1A3, and NADP^+ was 1 mM for ALDH3A1.
In order to determine the IC50 values, reaction rates were determined at various concentrations of inhibitor at a fixed concentration of substrate. As substrates for ALDH1A1, ALDH1A3, and ALDH3A1, 5 μM hexanal, 6 μM hexanal, and 31 μM 4-NBA, respectively, were used. The IC50 values were calculated by nonlinear fitting of the obtained data to a sigmoidal plot using GraFit 5.0 (Erithacus software), with the following 4-parameter equation [drawing 2] , where y is the specific activity, x is the inhibitor concentration, background is the minimum y value, range is the fitted uninhibited value minus the background, and s is the slope factor. Values are expressed as the mean ± SE.
Activity assays to determine the type of inhibition and Ki value were performed using various substrate and inhibitor concentrations maintaining the same conditions as for the IC50 experiments and using GraFit 5.0 for data processing. The data of enzymatic activities at different inhibitor concentrations were fitted to the Michaelis–Menten equation to determine the values of Km and Vmax. Next, results were fitted to the equations for competitive, given by [drawing 3]; noncompetitive, given by [drawing 4]; uncompetitive, given by [drawing 5]; and mixed, given by [drawing 6] .[56] The type of inhibition was selected based on the lowest error value. Parameters were expressed as the mean ± SE.

Human ALDH3A1 [5] = target: T2, Human ALDH3A1; assay: as above; type: biochemical; conditions: measured at a saturating substrate concentration (4-NBA); mean ± SE
Human ALDH1A1 = target: T3, Human ALDH1A1 (Homo sapiens, UniProt P00352); assay: DEAB analogues as substrates of ALDH1A1; type: biochemical; conditions: 10 μM compound as substrate, relative to activity with 10 μM hexanal (Figure S2)
T3 construct: made in house
T3 sequence (P00352 1-501): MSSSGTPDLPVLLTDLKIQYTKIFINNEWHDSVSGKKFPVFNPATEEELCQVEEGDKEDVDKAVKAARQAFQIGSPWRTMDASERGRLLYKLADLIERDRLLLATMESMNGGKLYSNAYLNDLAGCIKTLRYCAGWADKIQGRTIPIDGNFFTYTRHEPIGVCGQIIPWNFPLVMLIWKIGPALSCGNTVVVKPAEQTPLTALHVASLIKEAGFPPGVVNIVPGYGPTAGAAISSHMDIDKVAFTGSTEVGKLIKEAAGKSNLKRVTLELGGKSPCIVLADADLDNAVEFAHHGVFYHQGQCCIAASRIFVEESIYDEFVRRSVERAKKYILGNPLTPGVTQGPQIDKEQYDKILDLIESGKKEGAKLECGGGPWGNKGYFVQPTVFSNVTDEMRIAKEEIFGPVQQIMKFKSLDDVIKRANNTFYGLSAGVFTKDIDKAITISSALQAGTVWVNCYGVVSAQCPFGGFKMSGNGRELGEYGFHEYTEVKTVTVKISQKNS
Description: as §2
According to their structure with a carbonyl group, compounds were tested for their substrate properties against ALDH1A1, ALDH1A3, and ALDH3A1. […] Results are expressed as the percentage of activity at 10 μM versus the activity at 10 μM of their standard substrate (hexanal or 4-NBA). Values are expressed as the mean ± SE.

Human ALDH1A3 [6] = target: T1, Human ALDH1A3; assay: Inhibition screening, single point at 10 μM, ALDH1A3; type: biochemical; conditions: 10 μM compound; hexanal as substrate (Figure S1)
Description: as §2, with “Reaction buffers were as follows: ALDH1A1 was assayed in 50 mM HEPES, 0.5 mM EDTA, and 0.5 mM DTT, pH 8.0; ALDH1A3 was assayed in 50 mM HEPES, 30 mM MgCl2, and 5 mM DTT, pH 8.0; and ALDH3A1 was assayed in 50 mM Tris–HCl and 5 mM DTT, pH 8.0.” left out, “NAD^+ was 500 μM for ALDH1A1 and ALDH1A3, and NADP^+ was 1 mM for ALDH3A1.” left out
All compounds tested were dissolved in DMSO and assayed at a final concentration of 1% (v/v) DMSO. […] Alternatively, the enzymatic activity was measured in a Varian Cary 400 UV–vis spectrophotometer, by monitoring the increase in the absorbance of NAD(P)H at 340 nm (ε = 6.22 mM^–1·cm^–1) or in a Cary Eclipse Varian fluorimeter, as described above. […]

IC50 (LNCaP) [µM]	IC50 (Human ALDH1A3 [2]) [µM]	IC50 (PC3) [µM]	IC50 [3] [µM]	IC50 (DU145) [µM]	IC50 (Human ALDH3A1 [4]) [µM]	IC50 (Human ALDH3A1 [5]) [µM]	ALDH1A1 substrate activity (Human ALDH1A1) [%]	SMILES	IC50 [1] [µM]	remaining ALDH1A3 activity (Human ALDH1A3 [6]) [%]
–	–	–	–	–	–	–	–	CC(=O)O[C@@]12CO[C@@H]1C[C@H](O)[C@@]1(C)C(=O)[C@H](O)C3=C(C)[C@@H](OC(=O)[C@H](O)[C@@H](NC(=O)OC(C)(C)C)c4ccccc4)C[C@@](O)([C@@H](OC(=O)c4ccccc4)[C@H]21)C3(C)C [docetaxel]	0.001	–
> 200	10.4 ± 1	> 200	> 200	> 200	5.67 ± 0.66	–	–	CCN(CC)c1ccc(C=O)cc1 [DEAB, 4-(Diethylamino)benzaldehyde, reference compound]	–	–
10 ± 3	0.55 ± 0.05	77 ± 17	–	90 ± 27	–	13.7 ± 0.3	17.9	CCCN(CCC)c1ccc(C=O)cc1Cl [Compound 7, 3-Chloro-4-(dipropylamino)benzaldehyde]	–	–
–	–	–	–	–	–	–	–	Cc1cc(C=O)ccc1N1CCN(C)CC1 [Compound 24, 3-Methyl-4-(4-methylpiperazin-1-yl)benzaldehyde]	–	45
